In patent US20210253598A1, “ARYL ANNULATED MACROCYCLIC INDOLE DERIVATIVES” (priority 2017, published 2021):
Several values for one entry are separate records, joined by “and”; a condition that tells them apart may be missing. Equal values may be shown once. Where a name gives a salt, the structure may show the parent alone. Read-outs that look alike come from different tables or passages of the source.

Experiments:
A2780 = experiment: Anti-proliferative effect in A2780 cells, CellTiter-Glo (Assay 7); assay type: cell-based; settings: A2780, 72 hours incubation, CellTiter-Glo; several values per example; read-out: Antiproli A2780
Procedure, shortened: (§1)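 Overnight seeding at 37 °C, then 72 h treatment with compound; day 0 plate read at start. Luminescent ATP-based viability readout (CellTiter-Glo). IC50 normalised between day 0 and DMSO values.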

SUDHL10 [1] = experiment: Induction of caspase-3/7 activity in SUDHL10 cells (Assay 4); assay type: cell-based; settings: Homo sapiens, SU-DHL10, 3 h, SUDHL10, 3 hours treatment, Caspase-Glo 3/7; median; read-out: Caspase SUDHL10 [M] (median)
Procedure, shortened: (§2)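 Luminescent Caspase-Glo 3/7 read-out in SUDHL5 and SUDHL10 cells after 3 h compound exposure at 37 °C, followed by 1 h reagent incubation.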

SUDHL5 [2] = experiment: Anti-proliferative effect in SUDHL5 cells, CellTiter-Glo (Assay 7); assay type: cell-based; settings: Homo sapiens, SU-DHL-5, 72 h, SUDHL5, 72 hours incubation, CellTiter-Glo; median; read-out: Antiproli SUDHL5 [M] (median)
Procedure, shortened: as §1

SUDHL5 [3] = experiment: Induction of cytotoxicity in SUDHL5 cells, CellTiter-Glo (Assay 6); assay type: cell-based; settings: Homo sapiens, SU-DHL-5, 5 h, SUDHL5, 5 hours incubation, median, read-out: Cytotox SUDHL5 [M] (median)
Procedure, shortened: (§3)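 Luminescent ATP read-out (CellTiter-Glo) after 5 h compound exposure at 37° C. Cells seeded the day before; medium-only wells as background; rim wells excluded.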

MV-4-11 = experiment: Anti-proliferative effect in MV-4-11 cells, CellTiter-Glo (Assay 7); assay type: cell-based; settings: MV-4-11, 72 hours incubation, CellTiter-Glo, several values per example, read-out: Antiproli MV-4-11
Procedure, shortened: as §1

SUDHL10 [4] = experiment: Induction of cytotoxicity in SUDHL10 cells, CellTiter-Glo (Assay 6); assay type: cell-based; settings: Homo sapiens, SU-DHL10, 5 h, SUDHL10, 5 hours incubation, median, read-out: Cytotox SUDHL10 [M] (median)
Procedure, shortened: as §3

SUDHL5 [5] = experiment: Induction of caspase-3/7 activity in SUDHL5 cells (Assay 4); assay type: cell-based; settings: Homo sapiens, SU-DHL-5, 3 h, SUDHL5, 3 hours treatment, Caspase-Glo 3/7; median; read-out: Caspase SUDHL5 [M] (median)
Procedure, shortened: as §2

BCL-XL = BCL-XL (Homo sapiens, UniProt Q07817); experiment: Protein-protein interaction assay BCL-XL/Bad BH3 peptide, TR-FRET (BCL-XL assay, Assay 2); assay type: binding; settings: His-BCL-XL / Bad BH3 peptide, median
BCL-XL, sequence (Q07817 1-212): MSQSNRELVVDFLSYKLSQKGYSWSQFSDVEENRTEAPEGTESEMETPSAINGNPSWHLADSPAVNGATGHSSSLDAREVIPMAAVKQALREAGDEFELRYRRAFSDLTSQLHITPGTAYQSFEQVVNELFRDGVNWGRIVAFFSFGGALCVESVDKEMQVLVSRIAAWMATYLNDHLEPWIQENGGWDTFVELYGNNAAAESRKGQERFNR
Method: Protein-Protein Interaction Assay: BCL-XL/Bad BH3 Peptide (BCL-XL Assay)
The dose-dependent inhibition by the compounds described in this invention of the interaction between BCL-XL and the BH3 domain of Bad (both human) was determined using a steady state binding competition assay with time-resolved fluorescence energy transfer (TR-FRET) readout. For that purpose BCL-XL (amino acids 1-212, C-terminal fused to a hexahistidine (6×His) tag (SEQ ID 3) and a synthetic Bad BH3-derived peptide of sequence Biotin-PEG2-PEG2-[sequence]-Nle-[sequence]-amide (SEQ ID 4) served as protein receptor and tracer ligand respectively. The recombinant BCL-XL protein (expressed in E. coli) was purchased from BPS Bioscience (San Diego, Calif., USA). The Bad BH3-derived peptide can be obtained from e.g. Biosyntan (Berlin, Germany).
For that, 100-fold concentrated DMSO solutions were prepared by serial dilutions (1:3.4) of a 2 mM stock solution in a clear, 384-well microtiter plate (Greiner Bio-One, Frickenhausen, Germany). From there, 50 nl were transferred in a dark test plate (Greiner Bio-One, Frickenhausen, Germany). The assay was initiated by addition of 2 μl of a 2,5-fold concentrated His-BCL-XL solution (usually for a 1 nM end concentration in 5 μl reaction volume) in aqueous assay buffer [50 mM Tris/HCl pH 7, 100 mM sodium chloride (NaCl), 50 mM potassium fluoride (KF), 0.005% Tween-20, 2 mM DTT, 0.1% bovine gamma globulin (BGG)] to the compounds in the assay plate. This was followed by a 10-minute incubation step at 22° C. for pre-equilibration of the putative complex between His-BCL-XL and the compounds.
The mixture was incubated in the dark for one hour at 22° C. and then overnight at 4° C. The formation of BCL-XL/Bad complexes was determined by measuring the resonance energy transfer of the anti-His- Eu-cryptate antibody to the streptavidin-XL665 present in the reaction. For that purpose, the fluorescence emission at 620 nm and 665 nm after excitation at 330-350 nm was measured in a TR-FRET measuring instrument, for instance a Rubystar or a Pherastar (both from BMG Lab Technologies, Offenburg, Germany) or a Viewlux (Perkin-Elmer). The ratio of the emission at 665 nm and at 622 nm was used as indicator of the amount of BCL-XL/Bad complexes present.
The resulting data (ratio) were normalized, taking 0% inhibition as the mean value of control measurements (usually 32 data points) where all reagents were included. In this case 50 nl DMSO were used instead of compounds. […] IC50 values were determined by regression analysis based on a 4 parameter equation (minimum, maximum, IC50, Hill; Y=Max+(Min−Max)/(1+(X/IC50)^Hill) using the Screener Software (Genedata).

Cc1c2c(nn1C)COCc1ccccc1Cn1c(C(=O)O)c(CCCOc3cccc4cc(F)ccc34)c3ccc(Cl)c-2c31 (single isomer, unassigned; enantiomer 1) [Example 49, (−)-3-Chloro-17-{3-[(6-fluoronaphthalen-1-yl)oxy]propyl}-4,5-dimethyl-5,7,9,14-tetrahydroindolo[7,1-fg]pyrazolo[3,4-d][2,8]benzoxazacycloundecine-16-carboxylic acid-N-ethylethanamine Salt (Enantiomer 1)]
IC50 (A2780): 7.62 µM and 5.26 µM
EC50 (SUDHL10 [1]): 2.1e-06 M
IC50 (SUDHL5 [2]): 1e-06 M
IC50 (SUDHL5 [3]): 8.8e-07 M
IC50 (MV-4-11; Homo sapiens, MV4-11, 72 h): 3.09 µM
IC50 (MV-4-11): 3.41 µM and 3.78 µM
IC50 (SUDHL10 [4]): 1.6e-06 M
EC50 (SUDHL5 [5]): 7.7e-07 M
IC50 (BCL-XL): > 20 µM
